Assay results published in the NIST ThermoML archive (doi:10.1021/je2000205).
Numbers after ± are expanded uncertainties.

Test: mn = molality of the nth substance listed, in mol/kg
Details: 100 kPa, Liquid; for viscosity: Capillary tube (Ostwald / Ubbelohde) method; for speed of sound: Sing-around technique in a fixed-path interferometer; for mass density: Vibrating tube method

O=C[C@H](O)[C@@H](O)[C@H](O)[C@H](O)CO [D-glucose] + O
m1 = 1.13
Details	mass density [kg/m3]	speed of sound [m/s]	viscosity [mPa·s]
298.15 K	1065.07 ± 0.12	1564.8 ± 1.4	1.489 ± 0.15
303.15 K	1063.3 ± 0.11	1574.3 ± 1.3	1.278 ± 0.13
308.15 K	1061.36 ± 0.1	1582.4 ± 1.3	1.147 ± 0.12
313.15 K	1059.24 ± 0.1	1589.1 ± 1.3	0.9944 ± 0.1
318.15 K	1056.98 ± 0.1	1594.4 ± 1.3	0.9095 ± 0.091
323.15 K	1054.25 ± 0.12	1598.5 ± 1.4	0.8291 ± 0.083

OC[C@H]1O[C@@](CO)(O[C@H]2O[C@H](CO)[C@@H](O)[C@H](O)[C@H]2O)[C@@H](O)[C@@H]1O [D-sucrose] + O
Details	mass density, m1 = 1.27 [kg/m3]	speed of sound, m1 = 1.13 [m/s]	viscosity, m1 = 1.13 [mPa·s]
298.15 K	1127.37 ± 0.18	1607.9 ± 1.4	2.716 ± 0.27
303.15 K	1125.37 ± 0.17	1615.6 ± 1.3	2.376 ± 0.24
308.15 K	1123.2 ± 0.17	1621.9 ± 1.3	2.075 ± 0.21
313.15 K	1120.73 ± 0.17	1627 ± 1.3	1.795 ± 0.18
318.15 K	1118.18 ± 0.16	1630.8 ± 1.3	1.587 ± 0.16
323.15 K	1115.44 ± 0.17	1633.3 ± 1.4	1.394 ± 0.14
